Measured values from US8952024B2, “Herbicidal pyrimidone derivatives” (E I du Pont de Nemours and Company, priority 2009, dated 2015).

Key:
Type in all cases: in vivo
[1] = system: barnyardgrass (Echinochloa crus-galli); test: Test B flooded paddy test; settings: for Plant response rating, Flood, Barnyardgrass: 250 g ai/ha, flooded paddy test, visual rating on 0 to 100 scale (0 no effect, 100 complete control) after 13 to 15 days; for Plant response rating, Barnyardgrass: Flood (flooded paddy test), 13 to 15 days; for Barnyardgrass plant response rating: Flood, 31 g ai/ha, scale 0 to 100 (0 no effect, 100 complete control)
How it was run: (§1)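 Post-flood paddy application: compounds are introduced into water 3 cm deep over the soil, reaching plants at the 2-leaf stage. The water level is maintained, and after 13–15 days under greenhouse conditions, response is judged by eye relative to controls, where 100 means complete control.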

[2] = system: ducksalad (Heteranthera limosa); test: Test B flooded paddy test; settings: for Plant response rating, Flood, Ducksalad: 250 g ai/ha, flooded paddy test, visual rating on 0 to 100 scale (0 no effect, 100 complete control) after 13 to 15 days; for Plant response rating, Ducksalad: Flood (flooded paddy test), 13 to 15 days; for Ducksalad plant response rating: Flood, 31 g ai/ha, scale 0 to 100 (0 no effect, 100 complete control)
How it was run: as §1

[3] = system: rice (Oryza sativa); test: Test B flooded paddy test; settings: for Plant response rating, Flood, Rice: 250 g ai/ha, flooded paddy test, visual rating on 0 to 100 scale (0 no effect, 100 complete control) after 13 to 15 days; for Plant response rating, Rice: Flood (flooded paddy test), 13 to 15 days; for Rice plant response rating: Flood, 31 g ai/ha, scale 0 to 100 (0 no effect, 100 complete control)
How it was run: as §1

[4] = system: umbrella sedge (Cyperus difformis); test: Test B flooded paddy test; settings: for Plant response rating, Flood, Sedge, Umbrella: 250 g ai/ha, flooded paddy test, visual rating on 0 to 100 scale (0 no effect, 100 complete control) after 13 to 15 days; for Plant response rating, Sedge, Umbrella: Flood (flooded paddy test), 13 to 15 days; for Sedge, Umbrella plant response rating: Flood, 31 g ai/ha, scale 0 to 100 (0 no effect, 100 complete control)
How it was run: as §1

[5] = system: morningglory (Ipomoea coccinea); test: Test B pre-/postemergence plant response; settings: for Morningglory plant response rating (0 to 100 scale): 62 g ai/ha, 0 is no effect, 13 to 15 days
How it was run: (§2)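 Compound in solvent + surfactant applied pre-em (loam/sand) or post-em (plants 2–18 cm, peat medium); greenhouse hold 13–15 days; visual 0–100 control score.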

[6] = system: Surinam grass (Brachiaria decumbens); test: Test B pre-/postemergence plant response; settings: for Surinam Grass plant response rating (0 to 100 scale): 62 g ai/ha, 0 is no effect, 13 to 15 days
How it was run: as §2

[7] = system: Italian ryegrass (Lolium multiflorum); test: Test B pre-/postemergence plant response; settings: for Ryegrass, Italian plant response rating (0 to 100 scale): 62 g ai/ha, 0 is no effect, 13 to 15 days
How it was run: as §2

[8] = system: bermudagrass (Cynodon dactylon); test: Test B pre-/postemergence plant response; settings: for Bermudagrass plant response rating (0 to 100 scale): 62 g ai/ha, 0 is no effect, 13 to 15 days
How it was run: as §2

[9] = system: blackgrass (Alopecurus myosuroides); test: Test B pre-/postemergence plant response; settings: for Blackgrass plant response rating (0 to 100 scale): 62 g ai/ha, 0 is no effect, 13 to 15 days
How it was run: as §2

[10] = system: corn (Zea mays); test: Test B pre-/postemergence plant response; settings: for Corn plant response rating (0 to 100 scale): 62 g ai/ha, 0 is no effect, 13 to 15 days
How it was run: as §2

[11] = system: ragweed (common ragweed, Ambrosia elatior); test: Test B pre-/postemergence plant response; settings: for Ragweed plant response rating (0 to 100 scale): 62 g ai/ha, 0 is no effect, 13 to 15 days
How it was run: as §2

[12] = system: cocklebur (Xanthium strumarium); test: Test B pre-/postemergence plant response; settings: for Cocklebur plant response rating (0 to 100 scale): 62 g ai/ha, 0 is no effect, 13 to 15 days
How it was run: as §2

[13] = system: soybean (Glycine max); test: Test B pre-/postemergence plant response; settings: for Soybean plant response rating (0 to 100 scale): 62 g ai/ha, 0 is no effect, 13 to 15 days
How it was run: as §2

[14] = 62 g ai/ha, scale of 0 to 100 where 0 is no effect and 100 is complete control
[15] = 125 g ai/ha, scale 0 to 100, 0 is no effect, 100 is complete control
[16] = 31 g ai/ha, postemergence, scale 0 to 100, 0 is no effect, 100 is complete control
[17] = postemergence, 100 is complete control
[18] = Postemergence, 250 g ai/ha, scale 0 to 100 (0 no effect, 100 complete control)
[19] = Postemergence, 125 g ai/ha, visual rating after 13 to 15 days, scale 0 (no effect) to 100 (complete control)

Compound: CCCCCn1c(-c2ccccc2)ncc(C(=O)C2=C(O)CCCC2=O)c1=O [Compound 89]
- Plant response rating, Flood, Barnyardgrass [1]: 40
- Plant response rating, Barnyardgrass [1, 14]: 20
- Plant response rating, Barnyardgrass [1, 15]: 30
- Barnyardgrass plant response rating [1]: 20
- Plant response rating, Flood, Ducksalad [2]: 100
- Plant response rating, Ducksalad [2, 14]: 90
- Plant response rating, Ducksalad [2, 15]: 100
- Ducksalad plant response rating [2]: 45
- Plant response rating, Flood, Rice [3]: 15
- Plant response rating, Rice [3, 14]: 0
- Plant response rating, Rice [3, 15]: 0
- Rice plant response rating [3]: 0
- Plant response rating, Flood, Sedge, Umbrella [4]: 85
- Plant response rating, Sedge, Umbrella [4, 14]: 85
- Plant response rating, Sedge, Umbrella [4, 15]: 85
- Sedge, Umbrella plant response rating [4]: 30
- Plant response rating, Morningglory [5, 16]: 70
- Morningglory plant response rating (0 to 100 scale) [5, 17]: 85
- Plant response rating, Morningglory [5, 18]: 100
- Plant response rating, Surinam Grass [6, 16]: 55
- Surinam Grass plant response rating (0 to 100 scale) [6, 17]: 75
- Plant response rating, Surinam Grass [6, 18]: 95
- Plant response rating, Ryegrass, Italian [7, 16]: 0
- Ryegrass, Italian plant response rating (0 to 100 scale) [7, 17]: 5
- Plant response rating, Ryegrass, Italian [7, 18]: 30
- Plant response rating, Bermudagrass [8, 16]: 75
- Bermudagrass plant response rating (0 to 100 scale) [8, 17]: 85
- Plant response rating, Bermudagrass [8, 19]: 95
- Plant response rating, Bermudagrass [8, 18]: 95
- Plant response rating, Blackgrass [9, 16]: 10
- Blackgrass plant response rating (0 to 100 scale) [9, 17]: 15
- Plant response rating, Blackgrass [9, 19]: 20
- Plant response rating, Blackgrass [9, 18]: 30
- Plant response rating, Corn [10, 16]: 80
- Corn plant response rating (0 to 100 scale) [10, 17]: 95
- Plant response rating, Corn [10, 19]: 98
- Plant response rating, Corn [10, 18]: 98
- Plant response rating, Ragweed [11, 16]: 70
- Ragweed plant response rating (0 to 100 scale) [11, 17]: 85
- Plant response rating, Ragweed [11, 18]: 100
- Plant response rating, Cocklebur [12, 16]: 10
- Cocklebur plant response rating (0 to 100 scale) [12, 17]: 60
- Plant response rating, Cocklebur [12, 19]: 65
- Plant response rating, Cocklebur [12, 18]: 70
- Plant response rating, Soybean [13, 16]: 90
- Soybean plant response rating (0 to 100 scale) [13, 17]: 90
- Plant response rating, Soybean [13, 18]: 98

Compound: CC(C)n1c(-c2ccccc2)ncc(C(=O)C2=C(O)CCCC2=O)c1=O [Compound 95]
- Plant response rating, Flood, Barnyardgrass [1]: 70
- Plant response rating, Barnyardgrass [1, 14]: 35
- Plant response rating, Barnyardgrass [1, 15]: 65
- Barnyardgrass plant response rating [1]: 20
- Plant response rating, Flood, Ducksalad [2]: 20
- Plant response rating, Ducksalad [2, 14]: 0
- Plant response rating, Ducksalad [2, 15]: 0
- Ducksalad plant response rating [2]: 0
- Plant response rating, Flood, Rice [3]: 30
- Plant response rating, Rice [3, 14]: 20
- Plant response rating, Rice [3, 15]: 30
- Rice plant response rating [3]: 0
- Plant response rating, Flood, Sedge, Umbrella [4]: 75
- Plant response rating, Sedge, Umbrella [4, 14]: 20
- Plant response rating, Sedge, Umbrella [4, 15]: 50
- Sedge, Umbrella plant response rating [4]: 0
- Plant response rating, Morningglory [5, 16]: 100
- Morningglory plant response rating (0 to 100 scale) [5, 17]: 100
- Plant response rating, Morningglory [5, 18]: 100
- Plant response rating, Surinam Grass [6, 16]: 45
- Surinam Grass plant response rating (0 to 100 scale) [6, 17]: 45
- Plant response rating, Surinam Grass [6, 18]: 70
- Plant response rating, Ryegrass, Italian [7, 16]: 0
- Ryegrass, Italian plant response rating (0 to 100 scale) [7, 17]: 0
- Plant response rating, Ryegrass, Italian [7, 18]: 0
- Plant response rating, Bermudagrass [8, 16]: 45
- Bermudagrass plant response rating (0 to 100 scale) [8, 17]: 75
- Plant response rating, Bermudagrass [8, 19]: 75
- Plant response rating, Bermudagrass [8, 18]: 90
- Plant response rating, Blackgrass [9, 16]: 0
- Blackgrass plant response rating (0 to 100 scale) [9, 17]: 0
- Plant response rating, Blackgrass [9, 19]: 0
- Plant response rating, Blackgrass [9, 18]: 5
- Plant response rating, Corn [10, 16]: 0
- Corn plant response rating (0 to 100 scale) [10, 17]: 0
- Plant response rating, Corn [10, 19]: 25
- Plant response rating, Corn [10, 18]: 35
- Plant response rating, Ragweed [11, 16]: 75
- Ragweed plant response rating (0 to 100 scale) [11, 17]: 80
- Plant response rating, Ragweed [11, 18]: 95
- Plant response rating, Cocklebur [12, 16]: 70
- Cocklebur plant response rating (0 to 100 scale) [12, 17]: 95
- Plant response rating, Cocklebur [12, 19]: 100
- Plant response rating, Cocklebur [12, 18]: 100
- Plant response rating, Soybean [13, 16]: 95
- Soybean plant response rating (0 to 100 scale) [13, 17]: 98
- Plant response rating, Soybean [13, 18]: 98
